Patent US12264352B2, “Method for enhancing extracellular vesicle production” (Research Foundation of the City University of New York, priority 2016, dated 2025)
Non-standard residues stand in square brackets, D forms with d. Residues, ends and D or L forms follow the SMILES beside them. *: point of attachment. Acetyl(2-naphthyl) = O=C(Cc1ccc2ccccc2c1)*; pY = N[C@@H](Cc1ccc(OP(=O)(O)O)cc1)C(=O)O; NBD = O=[N+]([O-])c1ccc(*)c2nonc12

Key:
[1] = test system: MB231, HT1080, MB231-4175; experiment: Cell tests (toxicity/viability) for various cell types at 0-200 μM peptide after 60 min of incubation; assay type: cell-based; conditions: in general, toxicity depends on cell type; 60 min incubation; FIG. 5A
Description: As shown in FIG. 5A toxicity depends on the cell type, however in general cells are viable under 100 μM of peptide incubation (NapFFK(NBD)Yp). […] Thus, EV generation can be amplified as low as 5 μM of peptide incubation and shorter times to be effective.

[2] = test system: MDA-MB231 breast cancer cells; experiment: Cell death of the cells used for EV production at high peptide concentration; assay type: cell-based; conditions: the particular cells used for EV production
Description: The NTA can also determine the average diameter of released EVs. While the increase of polymer concentration in parental cells increases the number of released EVs, the size of EVs is constant regardless of the polypeptide concentration in parental cells (FIG. 3B, FIG. 3C, FIG. 3D, FIG. 3E). The increased number of released EVs can also be confirmed by the increase of fluorescence intensity of collected EVs (FIG. 3F), measured by fluorescence spectrometer. […] In one embodiment, production is enhanced by at least 50% relative to the control. […] The particular cells used experienced cell death at concentrations above 500 μM of NapFFKYp-NBD. Alternative upper limits may be possible for other cell line and other polypeptide precursors.

O=C(Cc1ccc2ccccc2c1)N[C@@H](Cc1ccccc1)C(=O)N[C@@H](Cc1ccccc1)C(=O)N[C@@H](CCCCNc1ccc([N+](=O)[O-])c2nonc12)C(=O)N[C@@H](Cc1ccc(OP(=O)(O)O)cc1)C(=O)O [NapFFK(NBD)Yp] ({Acetyl(2-naphthyl)}-FFK(NBD)[pY]-OH)
peptide concentration under which cells are viable [1]: under 100 μM | concentration above which cells experienced cell death [2]: above 500 μM
